# Key:
# [1] = molecular target: T1, RIP1 kinase (Homo sapiens, UniProt Q13546); test: fluorescent polarization based binding assay; conditions: mean value, minimum of 2 experiments
# T1 sequence (Q13546 1-375 limits assumed): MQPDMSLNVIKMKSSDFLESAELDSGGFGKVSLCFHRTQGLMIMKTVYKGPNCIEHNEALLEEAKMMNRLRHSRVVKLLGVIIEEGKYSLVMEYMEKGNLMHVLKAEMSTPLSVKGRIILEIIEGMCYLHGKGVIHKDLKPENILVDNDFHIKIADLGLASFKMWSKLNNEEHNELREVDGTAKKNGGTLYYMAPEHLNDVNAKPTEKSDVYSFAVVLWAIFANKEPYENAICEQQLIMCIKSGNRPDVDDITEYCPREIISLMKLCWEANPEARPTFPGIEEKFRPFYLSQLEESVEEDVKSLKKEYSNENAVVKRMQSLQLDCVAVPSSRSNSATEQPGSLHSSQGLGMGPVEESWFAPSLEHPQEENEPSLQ
# Source text: A fluorescent polarization based binding assay was used to asses the activity of the compounds of this invention, the details of which are disclosed in International Patent Appln. No. PCT/IB2014/059004, now, International Patent Appln. Pub.
# [2] = system: human monocytic leukemia U937 cells; test: necroptosis assay in U937 cells; format: cell-based; conditions: viability by cellular ATP (Cell Titer-Glo); for IC50: Homo sapiens, U-937, U937 cells, read-out: mean pIC50, inhibition of necrosis in U937 cells (converted)
# Procedure: (§1) The efficacy of RIP1 inhibitors can be tested […] in vitro using a human monocytic leukemia U937 or mouse L929 fibrosarcoma cells in a necroptosis assay. As determined using the method described in He, S. et al. 2009. Cell 137(6):1100-1111 and International Patent Appln. No. PCT/IB2014/059004, now, International Patent Appln. Pub.
# (§2) Viability was measured by quantitating cellular levels of ATP using the Cell Titer-Glo kit. All data are means±standard deviation of the mean.
# [3] = system: TNF/zVAD induced temperature loss in mice; test: TNF-driven systemic inflammatory response syndrome model using TNF plus zVAD (temperature loss); format: in vivo, mouse; conditions: pre-dosed 15 minutes before i.v. mouse TNF and zVAD
# [4] = system: mouse L929 fibrosarcoma cells; test: necroptosis assay in L929 cells; format: cell-based; conditions: viability by cellular ATP (Cell Titer-Glo), read-out: mean pIC50, inhibition of necrosis in L929 cells (converted)
# Procedure: as §1, §2
IC50 [1] [nM],Structure (SMILES),IC50 [2] [nM],other results
1 to 10,"O=C(C1CCN(c2ccc(F)cn2)CC1)N1N=CC[C@H]1c1ccccc1 [Example 3, (S)-(1-(5-fluoropyridin-2-yl)piperidin-4-yl)(5-phenyl-4,5-dihydro-1H-pyrazol-1-yl)methanone]",1 to 100,
,"O=C(c1cnsn1)N1CCC(C(=O)N2N=CCC2c2ccccc2)CC1 (stereo not shown) [Example 155, (1-(1,2,5-thiadiazole-3-carbonyl)piperidin-4-yl)(5-phenyl-4,5-dihydro-1H-pyrazol-1-yl)methanone]",1 to 100,% Inhibition ([3]; 10 mg/kg PO): 49%
~631,"Cc1ccc([C@@H]2CC=NN2C(=O)C(C)(C)C)cn1 [Example 50, (S)-2,2-dimethyl-1-(5-(6-methylpyridin-3-yl)-4,5-dihydro-1H-pyrazol-1-yl)propan-1-one]",~158,IC50 [4]: ~20 nM
1 to 10,"O=C(C1CCN(c2ncc(F)cn2)CC1)N1N=CC[C@H]1c1ccccc1 [Example 7, (S)-(1-(5-fluoropyrimidin-2-yl)piperidin-4-yl)(5-phenyl-4,5-dihydro-1H-pyrazol-1-yl)methanone]",1 to 100,
~79.4,"CC(C)(C)C(=O)N1N=CC[C@H]1c1cncc(F)c1 [Example 15, (S)-1-(5-(5-fluoro-pyridin-3-yl)-4,5-dihydro-1H-pyrazol-1-yl)-2,2-dimethyl-propan-1-one]",,"mean pIC50, inhibition of necrosis in U937 cells [2]: ~7.2; IC50 [4]: ~20 nM"
~50.1,"CC(C)(C)C(=O)N1N=CC[C@H]1c1ccc(Cl)c(Cl)c1 [Example 40, (S)-1-(5-(3,4-dichlorophenyl)-4,5-dihydro-1H-pyrazol-1-yl)-2,2-dimethyl-propan-1-one]",,IC50 [4]: ~15.8 nM
~251,"CC(C)(C)C(=O)N1N=CC[C@H]1c1ccc2[nH]ccc2c1 [Example 91, (S)-1-(5-(1H-indol-5-yl)-4,5-dihydro-1H-pyrazol-1-yl)-2,2-dimethylpropan-1-one]",~100,IC50 [4]: ~251 nM
~31.6,"O=C(C1CCN(c2ncccn2)CC1)N1N=CC[C@H]1c1cccnc1 [Example 32, (S)-(5-(pyridin-3-yl)-4,5-dihydro-1H-pyrazol-1-yl)(1-(pyrimidin-2-yl)-piperidin-4-yl)-methanone]",~158,
,"CC(=O)N1CCC(C(=O)N2N=CCC2c2ccccc2)CC1 (stereo not shown) [Example 193, 1-(4-(5-phenyl-4,5-dihydro-1H-pyrazole-1-carbonyl)piperidin-1-yl)ethanone]",,% Inhibition ([3]; 140 mg/kg PO): 94%
~79.4,"CC(C)(C)C(=O)N1N=CC[C@H]1c1ccc(C(F)(F)F)cc1 [Example 62, (S)-2,2-dimethyl-1-(5-(4-(trifluoromethyl)-phenyl)-4,5-dihydro-1H-pyrazol-1-yl)propan-1-one]",,"mean pIC50, inhibition of necrosis in U937 cells [2]: ~7.2"
~100,"CC(C)(C)C(=O)N1N=CC[C@H]1c1cccc2[nH]ccc12 [Example 93, (S)-1-(5-(1H-indol-4-yl)-4,5-dihydro-1H-pyrazol-1-yl)-2,2-dimethylpropan-1-one]",,"mean pIC50, inhibition of necrosis in U937 cells [2]: ~7.0; IC50 [4]: ~79.4 nM"
1 to 10,"O=C(N1N=CCC1c1ccccc1)C1(F)CCN(c2ncc(F)cn2)CC1 (stereo not shown) [Example 189, (4-fluoro-1-(5-fluoropyrimidin-2-yl)piperidin-4-yl)(5-phenyl-4,5-dihydro-1H-pyrazol-1-yl)methanone]",1 to 100,
~126,"Cc1ccc(C(=O)N2N=CCC2c2ccccc2)cc1 (stereo not shown) [Example 17, (5-phenyl-4,5-dihydro-1H-pyrazol-1-yl)(p-tolyl)-methanone]",~631,
~39.8,"O=C(C1CCN(c2ccc(F)cn2)CC1)N1N=CCC1c1ccccc1 (stereo not shown) [Example 2, (1-(5-fluoropyridin-2-yl)-piperidin-4-yl)(5-phenyl-4,5-dihydro-1H-pyrazol-1-yl)methanone]",,IC50 [4]: ~200 nM
,"O=C(C1CCN(c2ncccn2)CC1)N1N=CC[C@H]1c1ccccc1 [Example 172, (S)-(5-phenyl-4,5-dihydro-1H-pyrazol-1-yl)(1-(pyrimidin-2-yl)piperidin-4-yl)methanone]",,IC50 [4]: ~631 nM
,"CC(C)(C)C(=O)N1N=CC[C@H]1c1cccc(F)c1 [Example 68, (S)-1-(5-(3-fluorophenyl)-4,5-dihydro-1H-pyrazol-1-yl)-2,2-dimethyl-propan-1-one 2,2,2-trifluoroacetate]",,IC50 [4]: ~5.01 nM
,"O=C(C1CCCC1)N1N=CCC1c1ccccc1 (stereo not shown) [Example 22, cyclopentyl(5-phenyl-4,5-dihydro-1H-pyrazol-1-yl)methanone]",1 to 100,

IC50 [1] [nM],Structure (SMILES),IC50 [2] [nM],other results
~501,"CC(=O)N1CCC(C(=O)N2N=CCC2c2ccc3c(c2)OCO3)CC1 (stereo not shown) [Example 12, 1-(4-(5-(benzo[d][1,3]-dioxol-5-yl)-4,5-dihydro-1H-pyrazole-1-carbonyl)-piperidin-1-yl)ethanone]",,
~31.6,"O=C(C1CCN(c2ncccn2)CC1)N1N=CCC1c1cncc(F)c1 (stereo not shown) [Example 11, (5-(5-fluoropyridin-3-yl)-4,5-dihydro-1H-pyrazol-1-yl)(1-(pyrimidin-2-yl)-piperidin-4-yl)methanone]",,
,"CC(C)(C)C(=O)N1N=CC[C@H]1c1cccc(Cl)c1 [Example 44, (S)-1-(5-(3-chlorophenyl)-4,5-dihydro-1H-pyrazol-1-yl)-2,2-dimethyl propan-1-one]",,IC50 [4]: ~39.8 nM
,"Cc1ocnc1C(=O)N1CCC(C(=O)N2N=CCC2c2ccccc2)CC1 (stereo not shown) [Example 158, (5-methyloxazol-4-yl)(4-(5-phenyl-4,5-dihydro-1H-pyrazole-1-carbonyl)piperidin-1-yl)methanone]",1 to 100,% Inhibition ([3]; 10 mg/kg PO): 77%
,"CC(C)(C)C(=O)N1N=CCC1c1cncc(F)c1 (stereo not shown) [Example 14, 1-(5-(5-fluoro-pyridin-3-yl)-4,5-dihydro-1H-pyrazol-1-yl)-2,2-dimethyl-propan-1-one]",1 to 100,
~398,"O=C(C1CCN(c2ccccn2)CC1)N1N=CC[C@H]1c1cccnc1 [Example 70, (S)-(1-(pyridin-2-yl)piperidin-4-yl) (5-(pyridin-3-yl)-4,5-dihydro-1H-pyrazol-1-yl)-methanone]",,
,"O=C(c1cccc(Cl)n1)N1CCC(C(=O)N2N=CCC2c2ccccc2)CC1 (stereo not shown) [Example 105, (1-(6-chloro-picolinoyl)piperidin-4-yl)(5-phenyl-4,5-dihydro-1H-pyrazol-1-yl)methanone]",1 to 100,
,"O=C(c1ccno1)N1CCC(C(=O)N2N=CCC2c2ccccc2)CC1 (stereo not shown) [Example 151, isoxazol-5-yl(4-(5-phenyl-4,5-dihydro-1H-pyrazole-1-carbonyl)piperidin-1-yl)methanone]",1 to 100,
,"Cc1ccc(C2CC=NN2C(=O)C(C)(C)C)cc1F (stereo not shown) [Example 54, 1-(5-(3-fluoro-4-methylphenyl)-4,5-dihydro-1H-pyrazol-1-yl)-2,2-dimethyl-propan-1-one]",1 to 100,
,"Cc1ccc(C2CC=NN2C(=O)C(C)(C)C)cc1 (stereo not shown) [Example 58, 2,2-dimethyl-1-(5-(p-tolyl)-4,5-dihydro-1H-pyrazol-1-yl)propan-1-one]",1 to 100,
,"Cc1ccccc1C1CC=NN1C(=O)C(C)(C)C (stereo not shown) [Example 60, 2,2-dimethyl-1-(5-(o-tolyl)-4,5-dihydro-1H-pyrazol-1-yl)propan-1-one]",1 to 100,
,O=C(c1cccnc1)N1N=CCC1c1ccccc1 (stereo not shown) [Example 209],~2000,
,"Cc1ccc(C2CC=NN2C(=O)C2CCN(c3ncc(F)cn3)CC2)cn1 (stereo not shown) [Example 187, (1-(5-fluoropyrimidin-2-yl)piperidin-4-yl)(5-(6-methylpyridin-3-yl)-4,5-dihydro-1H-pyrazol-1-yl)methanone]",1 to 100,
,"O=C(C1CCN(c2nc3ccccc3o2)CC1)N1N=CCC1c1ccccc1 (stereo not shown) [Example 180, (1-(benzo[d]oxazol-2-yl)piperidin-4-yl)(5-phenyl-4,5-dihydro-1H-pyrazol-1-yl)methanone 2,2,2-trifluoroacetate]",1 to 100,
,"Cc1ncc(C(=O)N2CCC(C(=O)N3N=CCC3c3ccccc3)CC2)s1 (stereo not shown) [Example 124, (2-methylthiazol-5-yl)(4-(5-phenyl-4,5-dihydro-1H-pyrazole-1-carbonyl)piperidin-1-yl)methanone]",1 to 100,
,"CC1(C(=O)N2N=CCC2c2ccccc2)CCN(c2ncc(F)cn2)CC1 (stereo not shown) [Example 190, (1-(5-fluoropyrimidin-2-yl)-4-methylpiperidin-4-yl)(5-phenyl-4,5-dihydro-1H-pyrazol-1-yl)methanone]",1 to 100,
,"CC(C)(C)C(=O)N1N=CC[C@H]1C1CCCCC1 [Example 56, (S)-1-(5-cyclohexyl-4,5-dihydro-1H-pyrazol-1-yl)-2,2-dimethylpropan-1-one]",,IC50 [4]: ~50.1 nM
